How the values were obtained:
KM12 = assay: NCI-60 growth inhibition, KM12; format: cell-based; conditions: Homo sapiens, Colon Cancer
Source text: (§1) Compound 4 had better potency than the lead compound 1 in 50 cancer cell lines. (better by 5 to 6-fold in leukemia, 2 to 17-fold in NSCLC, 2 to 6-fold in colon cancer, 2 to 5-fold in CNS cancer, 2 to 25-fold in melanoma, 2 to 5-fold in ovarian cancer, 2 to 9-fold in renal cancer, 2 to 5-fold in prostate cancer, and 2 to 6-fold in breast cancer compared to lead compound 1).

SNB-19 = assay: NCI-60 growth inhibition, SNB-19; format: cell-based; conditions: Homo sapiens, CNS Cancer
Source text: as §1

NCI-H23 = assay: NCI-60 growth inhibition, NCI-H23; format: cell-based; conditions: Homo sapiens, NSCLC
Source text: as §1

NCI-H522 = assay: NCI-60 growth inhibition, NCI-H522; format: cell-based; conditions: Homo sapiens, NSCLC
Source text: as §1

CAKI-1 = assay: NCI-60 growth inhibition, CAKI-1; format: cell-based; conditions: Homo sapiens, Renal Cancer
Source text: as §1

MDA-MB-468 = assay: NCI-60 growth inhibition, MDA-MB-468; format: cell-based; conditions: Homo sapiens, Breast Cancer
Source text: as §1

HS 578T = assay: NCI-60 growth inhibition, HS 578T; format: cell-based; conditions: Homo sapiens, Breast Cancer
Source text: as §1

SK-MEL-2 = assay: NCI-60 growth inhibition, SK-MEL-2; format: cell-based; conditions: Homo sapiens, Melanoma
Source text: as §1

SK-OV-3 = assay: NCI-60 growth inhibition, SK-OV-3; format: cell-based; conditions: Homo sapiens, Ovarian Cancer
Source text: as §1

EKVX = assay: NCI-60 growth inhibition, EKVX; format: cell-based; conditions: Homo sapiens, NSCLC
Source text: as §1

RPMI-8226 = assay: NCI-60 growth inhibition, RPMI-8226; format: cell-based; conditions: Homo sapiens, Leukemia
Source text: as §1

A549/ATCC = assay: NCI-60 growth inhibition, A549/ATCC; format: cell-based; conditions: Homo sapiens, NSCLC
Source text: as §1

SK-OV-3 MDR1-M6/6 cells = assay: SRB assay in Pgp-expressing SK-OV-3 MDR1-M6/6 cells; format: cell-based; conditions: Homo sapiens, SKOV3-MDR1-M6/6, read-out: IC50 ± SD in SK-OV-3 MDR1-M6/6 Cells
Experimental: Comparison of the IC50 values in the parental SK-OV-3 and genetically manipulated SK-OV-3 MDR1-M6/6 cell line allows for the calculation of a relative resistance value, designated Rr. This value is calculated by dividing the IC50 value obtained in the Pgp-expressing SK-OV-3 MDR1-M6/6 cells by the IC50 obtained in the parental SK-OV-3 cells.
The antiproliferative and cytotoxic effects of the compounds in cancer cells were evaluated using the SRB assay as previously described. MDA-MB-435 cells were obtained from the Lombardi Cancer Center of Georgetown University (Washington, DC, USA). SK-OV-3 and HeLa cells were purchased from ATCC. Details about the generation of the SK-OV-3 MDR1-M6/6 and HeLa WTβIII cells were described previously. The IC50 values represent an average of three independent experiments, each conducted using triplicate points.
HeLa, A-10, SK-OV-3, and SK-OV-3 MDR1-M6/6 cells were grown in Basal Medium Eagle (Sigma-Aldrich, St. Louis, MO, USA) supplemented with 10% FBS (Hyclone, GE Life Sciences, Logan, UT, USA) 1% GlutaMAX (Gibco, Life Technologies, Waltham, MA, USA) and 50 µg/mL gentamycin (Life Technologies, USA). HeLa WTβIII cells were grown in Dulbecco’s Modified Eagle Medium (Life Technologies) supplemented with 10% FBS and 50 µg/mL gentamycin. MDA-MB-435 cells were maintained in Improved Minimum Essential Medium (Life Technologies) supplemented with 10% FBS and 25 µg/mL gentamycin. All cells were grown at 37 °C in a humidified environment with 5% CO2.

PC-3 = assay: NCI-60 growth inhibition, PC-3; format: cell-based; conditions: Homo sapiens, Prostate Cancer
Source text: as §1

NCI-H322M = assay: NCI-60 growth inhibition, NCI-H322M; format: cell-based; conditions: Homo sapiens, NSCLC
Source text: as §1

tubulin = assay: Inhibition of [3H]colchicine binding to tubulin; design: species or system Bovine; conditions: compound at 5 μM, 5.0 µM [3H]colchicine, 1.0 µM tubulin
Experimental: Bovine brain tubulin was purified as described previously. The tubulin assembly assay has been described in detail. Briefly, 1.0 mg/mL of tubulin (10 µM) was preincubated for 15 min at 30 °C in 0.8 M monosodium glutamate (pH of 2 M stock solution adjusted to 6.6 with HCl), varying compound concentrations and 4% (v/v) DMSO as compound solvent. After the preincubation, the reaction mixtures were placed on ice and 0.4 mM GTP was added. The reaction mixtures were transferred to cuvettes at 0 °C in a recording spectrophotometer equipped with an electronic temperature controller. After baselines were established, the temperature was elevated over about 30 s to 30 °C, and changes in turbidity were monitored at 350 nm for 20 min. The compound concentration that caused a 50% reduction in increase in turbidity, interpolated from the values obtained with defined compound concentrations, was defined as the IC50 value. The assay to measure inhibition of [^3H]colchicine binding was described in detail previously. Briefly, 0.1 mg/mL (1.0 µM) tubulin was incubated at 37 °C with 5.0 µM [3H]colchicine and potential inhibitors at 5.0 µM. […] The [^3H]colchicine was a product of PerkinElmer, USA.

[1] = system: NCI-60 cancer cell line panel; assay: NCI-60 cancer cell line panel (overall); format: cell-based; conditions: Homo sapiens; 40 most sensitive of the 60 cancer cell lines
Source text: as §1

A-10 cells = assay: Cellular microtubule depolymerization in A-10 cells (immunofluorescence); format: cell-based; conditions: Rattus norvegicus, A10; 18 h, loss of 50% of interphase microtubules
Experimental: We investigated the microtubule depolymerization and the antiproliferative activities of compounds 4–14 (Table 2). […] We next evaluated the importance of the 4′-OMe group of compound 4 by replacing it with an isosteric 4′-SMe (5). […] Clearly, this further substantiated the importance of an S in the scaffold over an NH.
The effects of the compounds on cellular microtubules were evaluated in A-10 cells using indirect immunofluorescence microscopy. These cells were obtained from the American Type Culture Collection (ATCC) (Manassas, VA, USA). Cells were treated with the compounds of interest for 18 h, and the cells fixed with cold MeOH and microtubule structures were visualized using a β-tubulin antibody (Sigma-Aldrich, St. Louis, MO, USA). The concentration that caused loss of 50% of the interphase microtubules was defined as the EC50 and calculated as previously described. These values represent an average of at least three independent experiments.

MCF7 = assay: NCI-60 growth inhibition, MCF7; format: cell-based; conditions: Homo sapiens, Breast Cancer
Source text: as §1

MOLT-4 = assay: NCI-60 growth inhibition, MOLT-4; format: cell-based; conditions: Homo sapiens, Leukemia
Source text: as §1

UACC-257 = assay: NCI-60 growth inhibition, UACC-257; format: cell-based; conditions: Homo sapiens, Melanoma
Source text: as §1

BT-549 = assay: NCI-60 growth inhibition, BT-549; format: cell-based; conditions: Homo sapiens, Breast Cancer
Source text: as §1

COc1ccc(N(C)c2nc(N)nc3sc4c(c23)CCCC4)cc1 [Compound 4, N4-(4-methoxyphenyl)-N4-methyl-5,6,7,8-tetrahydrobenzo[4,5]thieno[2,3-d]pyrimidine-2,4-diamine]
GI50 (KM12): 13.4 nM | GI50 (SNB-19): 9.04 nM | GI50 (NCI-H23): 11.3 nM | GI50 (NCI-H522): 6.87 nM | GI50 (CAKI-1): 16.8 nM | GI50 (MDA-MB-468): 6.05 nM | GI50 (HS 578T): 13.5 nM | GI50 (SK-MEL-2): 11.8 nM | GI50 (SK-OV-3): 15.6 nM | GI50 (EKVX): 11.2 nM | GI50 (RPMI-8226): 12.7 nM | GI50 (A549/ATCC): 12 nM | IC50 (SK-OV-3 MDR1-M6/6 cells): 17.5 ± 0.8 nM | GI50 (PC-3): 7.67 nM | GI50 (NCI-H322M): 11.6 nM | Inhibition of Colchicine Binding (% inhibition ± SD) (tubulin): 99.0 ± 1.0% | GI50 [1]: ~10 nM | EC50 (A-10 cells): 19 nM | GI50 (MCF7): 8.01 nM | GI50 (MOLT-4): 8.8 nM | GI50 (UACC-257): 18.4 nM | GI50 (BT-549): 17.5 nM

Reference: paper PMC8747035, “Design, Synthesis, and Biological Evaluation of 5,6,7,8-Tetrahydrobenzo[4,5]thieno[2,3-d]pyrimidines as Microtubule Targeting Agents” (Molecules, 2022)
